Source: patent publication US20250179059A1 (The Regents of the University of California, priority 2021, published 2025)

Key:
[1] = tested on: human SKM-1 acute myeloid leukemia cells; assay: SKM-1 antiproliferation cell-based assay (ATPlite); details: Homo sapiens, SKM-1, 96 h, SKM-1 antiproliferation assay, 4 days, Table C2
Summary of the method: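 Log-phase cells in RPMI 1640/15% FBS were seeded at 34722 cells/mL and exposed for 4 days to nine-concentration DMSO serial dilutions in triplicate. Viability was read as ATP luminescence (ATPlite 1step), and IC50 values came from variable-slope non-linear regression.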

[2] = target: T1, human BRD4 bromodomain II (Homo sapiens, UniProt O60885); assay: Bromodomain binding assay (AlphaScreen), BRD4 BDII; details: AlphaScreen assay, Table C2; read-out: BRD4 BDII IC50
T1 construct: human BRD4 bromodomain II [based on Genbank NM_058243, residues 349-460]; host or cells: E. coli
Summary of the method: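 Inhibition of acetyl-H4 peptide binding to human BRD4 bromodomains is measured by bead-based proximity (AlphaScreen) in pH 7.5 HEPES buffer containing 0.05% CHAPS and 0.1% BSA. Ten compound concentrations in 3-fold steps give competitive binding IC50s.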

| Structure (SMILES) | GI50 [1] | IC50 [2] |
| --- | --- | --- |
| Cn1ccn(-c2ccc(-c3cc(F)cc(-c4cc(N5CC6CC5CN6)c5cn[nH]c5c4)c3O)cc2Cl)c1=O (stereo not drawn) [Example 599, 1-(3′-(4-(2,5-diazabicyclo[2.2.1]heptan-2-yl)-1H-indazol-6-yl)-3-chloro-5′-fluoro-2′-hydroxy-[1,1′-biphenyl]-4-yl)-3-methyl-1H-imidazol-2(3H)-one] | 30 to 300 nM | 1 to 10 nM |
| Cn1ccn(-c2ccc(-c3cc(F)cc(-c4cc(N5CC6CCC5CN6)c5cn[nH]c5c4)c3O)cc2Cl)c1=O (stereo not drawn) [Example 600, 1-(3′-(4-(2,5-diazabicyclo[2.2.2]octan-2-yl)-1H-indazol-6-yl)-3-chloro-5′-fluoro-2′-hydroxy-[1,1′-biphenyl]-4-yl)-3-methyl-1H-imidazol-2(3H)-one] | 0.3 to 30 nM | 1 to 10 nM |
| Cn1ccn(-c2ccc(-c3cc(F)cc(-c4cc(N5CCN6CCCCC6C5)c5cn[nH]c5c4)c3O)cc2Cl)c1=O (stereo not drawn) [Example 601, 1-(3-chloro-5′-fluoro-3′-(4-(hexahydro-1H-pyrido[1,2-a]pyrazin-2(6H)-yl)-1H-indazol-6-yl)-2′-hydroxy-[1,1′-biphenyl]-4-yl)-3-methyl-1H-imidazol-2(3H)-one] | 0.3 to 30 nM | 0.01 to 1 nM |
| C[C@@H]1CN(c2cc(-c3cc(F)cc(-c4ccc(-n5ccn(C)c5=O)c(Cl)c4)c3O)cn3ncnc23)CCN1 [Example 602, (R)-1-(3-chloro-5′-fluoro-2′-hydroxy-3′-(8-(3-methylpiperazin-1-yl)-[1,2,4]triazolo[1,5-a]pyridin-6-yl)-[1,1′-biphenyl]-4-yl)-3-methyl-1H-imidazol-2(3H)-one] | 0.3 to 30 nM | 0.01 to 1 nM |
| C[C@@H]1CN(c2cc(-c3cc(F)cc(-c4ccc(-n5ccn(C)c5=O)c(Cl)c4)c3O)cc3[nH]c(=O)[nH]c23)CCN1 [Example 603, (R)-6-(3′-chloro-5-fluoro-2-hydroxy-4′-(3-methyl-2-oxo-2,3-dihydro-1H-imidazol-1-yl)-[1,1′-biphenyl]-3-yl)-4-(3-methylpiperazin-1-yl)-1H-benzo[d]imidazol-2(3H)-one] | 30 to 300 nM | 0.01 to 1 nM |
| CN1CCN(c2cc(-c3cc(F)cc(-c4ccc(-n5ccn(C)c5=O)c(Cl)c4)c3O)cc3c2cnn3C)CC1 [Example 604, 1-(3-chloro-5′-fluoro-2′-hydroxy-3′-(1-methyl-4-(4-methylpiperazin-1-yl)-1H-indazol-6-yl)-[1,1′-biphenyl]-4-yl)-3-methyl-1H-imidazol-2(3H)-one] | 0.3 to 30 nM | 0.01 to 1 nM |
| C[C@@H]1CN(c2cc(-c3cc(F)cc(-c4ccc(-n5ccn(C)c5=O)c(Cl)c4)c3O)cc3c2nnn3C)CCN1 [Example 605, (R)-1-(3-chloro-5′-fluoro-2′-hydroxy-3′-(1-methyl-4-(3-methylpiperazin-1-yl)-1H-benzo[d][1,2,3]triazol-6-yl)-[1,1′-biphenyl]-4-yl)-3-methyl-1H-imidazol-2(3H)-one] | 0.3 to 30 nM | 0.01 to 1 nM |
| Cn1ccn(-c2ccc(-c3cc(F)cc(-c4cc(N5CCN6CCCC6C5)c5cn[nH]c5c4)c3O)cc2Cl)c1=O (stereo not drawn) [Example 606, 1-(3-chloro-5′-fluoro-3′-(4-(hexahydropyrrolo[1,2-a]pyrazin-2(1H)-yl)-1H-indazol-6-yl)-2′-hydroxy-[1,1′-biphenyl]-4-yl)-3-methyl-1H-imidazol-2(3H)-one] | 0.3 to 30 nM | 0.01 to 1 nM |
| Cn1ccn(-c2ccc(-c3cc(F)cc(-c4cc(N5CC6CCC(C5)N6)c5cnn(C)c5c4)c3O)cc2Cl)c1=O [Example 607, 1-(3′-(4-(3,8-diazabicyclo[3.2.1]octan-3-yl)-1-methyl-1H-indazol-6-yl)-3-chloro-5′-fluoro-2′-hydroxy-[1,1′-biphenyl]-4-yl)-3-methyl-1H-imidazol-2(3H)-one] | 0.3 to 30 nM | 0.01 to 1 nM |
| Cc1ccc(S(=O)(=O)n2ccc3c(N4CCN[C@H](C)C4)cc(-c4cc(F)cc(-c5ccc(-n6ccn(C)c6=O)c(Cl)c5)c4O)cc32)cc1 [Example 608, (R)-1-(3-chloro-5′-fluoro-2′-hydroxy-3′-(4-(3-methylpiperazin-1-yl)-1-tosyl-1H-indol-6-yl)-[1,1′-biphenyl]-4-yl)-3-methyl-1H-imidazol-2(3H)-one] | 30 to 300 nM | 10 to 100 nM |
| Cn1ccn(-c2ccc(-c3cc(F)cc(-c4cc(N5CCN6CCCCC6C5)c5cnn(C)c5c4)c3O)cc2Cl)c1=O (stereo not drawn) [Example 609, 1-(3-chloro-5′-fluoro-3′-(4-(hexahydro-1H-pyrido[1,2-a]pyrazin-2(6H)-yl)-1-methyl-1H-indazol-6-yl)-2′-hydroxy-[1,1′-biphenyl]-4-yl)-3-methyl-1H-imidazol-2(3H)-one] | 0.3 to 30 nM | 0.01 to 1 nM |
| Cn1ccn(-c2ccc(-c3cc(F)cc(-c4ccnc(N5CCCCC5)c4)c3O)cc2Cl)c1=O [Example 612, 1-(3-chloro-5′-fluoro-2′-hydroxy-3′-(2-(piperidin-1-yl)pyridin-4-yl)-[1,1′-biphenyl]-4-yl)-3-methyl-1H-imidazol-2(3H)-one] | 300 to 3000 nM | 1 to 10 nM |
| Cn1ccn(-c2ccc(-c3cc(F)cc(-c4ccnc(N5CCN(C6CCOC6)CC5)c4)c3O)cc2Cl)c1=O (stereo not drawn) [Example 618, 1-(3-chloro-5′-fluoro-2′-hydroxy-3′-(2-(4-(tetrahydrofuran-3-yl)piperazin-1-yl)pyridin-4-yl)-[1,1′-biphenyl]-4-yl)-3-methyl-1H-imidazol-2(3H)-one] | 30 to 300 nM | 0.01 to 1 nM |
| Cn1ccn(-c2ccc(-c3cc(F)cc(-c4ccnc(N5CCN(C6CCC6)CC5)c4)c3O)cc2Cl)c1=O [Example 619, 1-(3-chloro-3′-(2-(4-cyclobutylpiperazin-l-yl)pyridin-4-yl)-5′-fluoro-2′-hydroxy-[1,1′-biphenyl]-4-yl)-3-methyl-1H-imidazol-2(3H)-one] | 0.3 to 30 nM | 0.01 to 1 nM |
| Cn1ccn(-c2ccc(-c3cc(F)cc(-c4ccnc(N5CCC[C@@H](O)C5)c4)c3O)cc2Cl)c1=O [Example 622, (R)-1-(3-chloro-5′-fluoro-2′-hydroxy-3′-(2-(3-hydroxypiperidin-1-yl)pyridin-4-yl)-[1,1′-biphenyl]-4-yl)-3-methyl-1H-imidazol-2(3H)-one] | 30 to 300 nM | 1 to 10 nM |

Next, values leading:

| GI50 [1] | IC50 [2] | Structure (SMILES) |
| --- | --- | --- |
| 0.3 to 30 nM | 0.01 to 1 nM | Cn1ccn(-c2ccc(-c3cc(F)cc(-c4ccnc(N5CCN(C[C@@H](O)CO)CC5)c4)c3O)cc2Cl)c1=O [Example 610, (R)-1-(3-chloro-3′-(2-(4-(2,3-dihydroxypropyl)piperazin-1-yl)pyridin-4-yl)-5′-fluoro-2′-hydroxy-[1,1′-biphenyl]-4-yl)-3-methyl-1H-imidazol-2(3H)-one] |
| 0.3 to 30 nM | 0.01 to 1 nM | Cn1ccn(-c2ccc(-c3cc(F)cc(-c4ccnc(N5CCN(CC6COC6)CC5)c4)c3O)cc2Cl)c1=O [Example 611, 1-(3-chloro-5′-fluoro-2′-hydroxy-3′-(2-(4-(oxetan-3-ylmethyl)piperazin-1-yl)pyridin-4-yl)-[1,1′-biphenyl]-4-yl)-3-methyl-1H-imidazol-2(3H)-one] |
| 30 to 300 nM | 1 to 10 nM | Cn1ccn(-c2ccc(-c3cc(F)cc(-c4ccnc(N5CCCC5)c4)c3O)cc2Cl)c1=O [Example 613, 1-(3-chloro-5′-fluoro-2′-hydroxy-3′-(2-(pyrrolidin-1-yl)pyridin-4-yl)-[1,1′-biphenyl]-4-yl)-3-methyl-1H-imidazol-2(3H)-one] |
| 0.3 to 30 nM | 0.01 to 1 nM | Cn1ccn(-c2ccc(-c3cc(F)cc(-c4ccnc(N5CCN(C(C)(C)C)CC5)c4)c3O)cc2Cl)c1=O [Example 614, 1-(3′-(2-(4-(tert-butyl)piperazin-1-yl)pyridin-4-yl)-3-chloro-5′-fluoro-2′-hydroxy-[1,1′-biphenyl]-4-yl)-3-methyl-1H-imidazol-2(3H)-one] |
| 30 to 300 nM | 1 to 10 nM | Cn1ccn(-c2ccc(-c3cc(F)cc(-c4ccnc(N5CCOCC5)c4)c3O)cc2Cl)c1=O [Example 615, 1-(3-chloro-5′-fluoro-2′-hydroxy-3′-(2-morpholinopyridin-4-yl)-[1,1′-biphenyl]-4-yl)-3-methyl-1H-imidazol-2(3H)-one] |
| 0.3 to 30 nM | 0.01 to 1 nM | Cn1ccn(-c2ccc(-c3cc(F)cc(-c4ccnc(N5CCN(CCN)CC5)c4)c3O)cc2Cl)c1=O [Example 616, 1-(3′-(2-(4-(2-aminoethyl)piperazin-1-yl)pyridin-4-yl)-3-chloro-5′-fluoro-2′-hydroxy-[1,1′-biphenyl]-4-yl)-3-methyl-1H-imidazol-2(3H)-one] |
| 0.3 to 30 nM | 0.01 to 1 nM | Cn1ccn(-c2ccc(-c3cc(F)cc(-c4ccnc(N5CCN(CCCO)CC5)c4)c3O)cc2Cl)c1=O [Example 617, 1-(3-chloro-5′-fluoro-2′-hydroxy-3′-(2-(4-(3-hydroxypropyl)piperazin-1-yl)pyridin-4-yl)-[1,1′-biphenyl]-4-yl)-3-methyl-1H-imrdazol-2(3H)-one] |
| 30 to 300 nM | 0.01 to 1 nM | Cn1ccn(-c2ccc(-c3cc(F)cc(-c4ccnc(N5CCN(CCCN)CC5)c4)c3O)cc2Cl)c1=O [Example 620, 1-(3′-(2-(4-(3-aminopropyl)piperazin-1-yl)pyridin-4-yl)-3-chloro-5′-fluoro-2′-hydroxy-[1,1′-biphenyl]-4-yl)-3-methyl-1H-imidazol-2(3H)-one] |
| 0.3 to 30 nM | 0.01 to 1 nM | Cn1ccn(-c2ccc(-c3cc(F)cc(-c4ccnc(N5CCN(C[C@H](O)CO)CC5)c4)c3O)cc2Cl)c1=O [Example 621, (S)-1-(3-chloro-3′-(2-(4-(2,3-dihydroxypropyl)piperazin-1-yl)pyridin-4-yl)-5′-fluoro-2′-hydroxy-[1,1′-biphenyl]-4-yl)-3-methyl-1H-imidazol-2(3H)-one] |
